Data taken from US20260167619A2, “INDOLINE COMPOUNDS AND DERIVATIVES AS EGFR INHIBITORS” (BeOne Medicines I GmbH, priority 2020, published 2026).

Columns and labels:
[1] = target: T1, EGFR (aa668-1210, Invitrogen) (Homo sapiens, UniProt P00533); test: Biochemical EGFR inhibition assay (TR-FRET), wild-type EGFR; details: ATP at Km, 15 min pre-incubation, 60 min reaction; read-out: WT (Km ATP) IC50
T1 construct: EGFR (aa668-1210, Invitrogen); purchased Invitrogen
Outline: (§1)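 Recombinant kinase pre-incubated with compound 15 min at room temperature in 50 mM HEPES pH7.5, 10 mM MgCl2, 2 mM DTT, 1 mM EGTA, 0.1% BSA, 0.01% Tween-20; reaction started with ATP at Km plus biotin-poly GT, run 60 min at RT. HTRF read (665/620 nm); IC50 from four-parameter logistic fit.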

[2] = target: T2, EGFR(L858R_T790M_C797S) (aa695-end, Invitrogen) (Homo sapiens, UniProt P00533, C797S/L858R/T790M); test: Biochemical EGFR inhibition assay (TR-FRET), L858R/T790M/C797S mutant; details: ATP at Km, 15 min pre-incubation, 60 min reaction; read-out: LR_TM_CS (Km ATP) IC50
T2 construct: purchased Invitrogen
Outline: as §1

[3] = target: EGFR(Dell9_T790M_C797S) (aa 669-1210, in house) (Homo sapiens, UniProt P00533, T790M/C797S, form not given); test: Biochemical EGFR inhibition assay (TR-FRET), Del19/T790M/C797S mutant; details: ATP at Km, 15 min pre-incubation, 60 min reaction; read-out: Del_TM_CS (Km ATP) IC50
Outline: as §1

BaF3-WT cells = BaF3-WT cells (Homo sapiens, UniProt P00533); test: Cell antiproliferation assay (CellTiter-Glo), BaF3-WT; type: cell-based; details: 48 h treatment, read-out: BaF3-WT IC50
Outline: (§2)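 Cells exposed 48 h to 8 doses from 5-fold serial dilution (500× DMSO stocks from 5 mM), final 0.2% DMSO. Viability by CellTiter-Glo luminescence; IC50 from four-parameter fit of percent inhibition versus concentration.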

BaF3-LR_TM_CS cells = BaF3-LR_TM_CS cells (Homo sapiens, UniProt P00533, T790M/C797S/L858R, cells depend on it); test: Cell antiproliferation assay (CellTiter-Glo), BaF3-LR_TM_CS; type: cell-based; details: 48 h treatment, read-out: BaF3-LR_TM_CS IC50
Outline: as §2

BaF3-Del_TM_CS cells = BaF3-Del_TM_CS cells (Homo sapiens, UniProt P00533, T790M/C797S, cells depend on it, form not given); test: Cell antiproliferation assay (CellTiter-Glo), BaF3-Del_TM_CS; type: cell-based; details: 48 h treatment, read-out: BaF3-Del_TM_CS IC50
Outline: as §2

BaF3-LR_TM_CS cells, sequence (P00533 whole entry T790M/C797S/L858R): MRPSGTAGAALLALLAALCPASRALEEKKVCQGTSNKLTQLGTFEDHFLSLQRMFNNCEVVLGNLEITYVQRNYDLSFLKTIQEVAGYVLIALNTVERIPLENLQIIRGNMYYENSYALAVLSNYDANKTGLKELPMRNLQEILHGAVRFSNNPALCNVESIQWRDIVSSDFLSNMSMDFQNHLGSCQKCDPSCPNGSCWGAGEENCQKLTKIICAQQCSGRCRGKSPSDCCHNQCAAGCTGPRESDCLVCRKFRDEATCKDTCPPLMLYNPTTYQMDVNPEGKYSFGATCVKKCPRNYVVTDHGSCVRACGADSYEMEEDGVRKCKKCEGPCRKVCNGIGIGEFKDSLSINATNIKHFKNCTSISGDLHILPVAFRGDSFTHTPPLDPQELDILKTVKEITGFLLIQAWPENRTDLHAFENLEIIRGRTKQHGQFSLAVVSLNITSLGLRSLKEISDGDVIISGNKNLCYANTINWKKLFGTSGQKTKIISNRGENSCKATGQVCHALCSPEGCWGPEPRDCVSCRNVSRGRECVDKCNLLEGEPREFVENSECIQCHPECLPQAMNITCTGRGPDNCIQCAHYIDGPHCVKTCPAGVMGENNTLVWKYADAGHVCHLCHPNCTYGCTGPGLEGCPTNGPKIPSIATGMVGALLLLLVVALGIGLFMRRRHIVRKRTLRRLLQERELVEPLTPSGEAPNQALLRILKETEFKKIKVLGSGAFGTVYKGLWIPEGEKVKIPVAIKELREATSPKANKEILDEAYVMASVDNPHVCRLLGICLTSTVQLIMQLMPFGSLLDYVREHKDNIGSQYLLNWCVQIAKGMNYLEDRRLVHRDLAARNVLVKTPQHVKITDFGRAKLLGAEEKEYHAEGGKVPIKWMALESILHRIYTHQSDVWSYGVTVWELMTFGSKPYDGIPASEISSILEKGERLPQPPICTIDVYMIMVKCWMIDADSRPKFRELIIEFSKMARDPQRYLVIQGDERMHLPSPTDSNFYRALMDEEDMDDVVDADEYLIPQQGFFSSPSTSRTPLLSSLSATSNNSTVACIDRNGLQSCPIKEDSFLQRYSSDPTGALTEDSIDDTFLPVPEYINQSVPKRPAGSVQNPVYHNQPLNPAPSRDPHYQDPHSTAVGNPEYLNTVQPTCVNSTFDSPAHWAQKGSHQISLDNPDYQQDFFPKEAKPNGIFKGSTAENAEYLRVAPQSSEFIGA
BaF3-Del_TM_CS cells, sequence (P00533 with tags, fused parts or gaps DEL746-750/T790M/C797S, form open): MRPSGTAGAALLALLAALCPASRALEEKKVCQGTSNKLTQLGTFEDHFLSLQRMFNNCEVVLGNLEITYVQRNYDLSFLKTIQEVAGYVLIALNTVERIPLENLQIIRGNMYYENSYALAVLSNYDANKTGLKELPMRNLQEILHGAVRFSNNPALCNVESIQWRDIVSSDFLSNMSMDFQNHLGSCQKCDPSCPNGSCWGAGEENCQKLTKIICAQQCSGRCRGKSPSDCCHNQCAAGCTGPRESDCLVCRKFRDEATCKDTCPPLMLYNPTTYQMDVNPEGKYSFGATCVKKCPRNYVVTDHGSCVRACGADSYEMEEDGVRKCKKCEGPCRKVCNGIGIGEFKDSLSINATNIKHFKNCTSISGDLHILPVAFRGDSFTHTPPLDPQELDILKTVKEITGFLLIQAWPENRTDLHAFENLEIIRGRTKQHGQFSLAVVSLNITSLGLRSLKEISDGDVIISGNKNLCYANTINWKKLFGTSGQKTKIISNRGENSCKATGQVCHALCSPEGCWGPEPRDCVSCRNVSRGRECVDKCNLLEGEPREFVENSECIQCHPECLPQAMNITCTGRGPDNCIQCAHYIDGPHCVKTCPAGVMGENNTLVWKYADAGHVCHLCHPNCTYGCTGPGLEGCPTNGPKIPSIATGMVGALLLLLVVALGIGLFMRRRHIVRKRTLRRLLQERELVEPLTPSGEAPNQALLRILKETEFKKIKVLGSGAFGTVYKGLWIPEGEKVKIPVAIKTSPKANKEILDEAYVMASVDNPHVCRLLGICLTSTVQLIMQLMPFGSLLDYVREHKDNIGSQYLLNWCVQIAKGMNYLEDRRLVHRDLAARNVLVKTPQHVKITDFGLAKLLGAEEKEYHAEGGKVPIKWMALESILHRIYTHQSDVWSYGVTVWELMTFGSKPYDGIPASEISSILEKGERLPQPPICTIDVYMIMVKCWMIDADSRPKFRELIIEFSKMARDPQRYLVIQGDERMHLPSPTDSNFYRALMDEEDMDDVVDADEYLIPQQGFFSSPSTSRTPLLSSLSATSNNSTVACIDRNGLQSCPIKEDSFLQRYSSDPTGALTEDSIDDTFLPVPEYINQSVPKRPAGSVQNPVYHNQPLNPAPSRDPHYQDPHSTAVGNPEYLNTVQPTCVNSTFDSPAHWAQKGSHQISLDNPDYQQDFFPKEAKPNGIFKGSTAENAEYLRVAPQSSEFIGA
EGFR(Dell9_T790M_C797S) (aa 669-1210, in house), sequence (P00533 with tags, fused parts or gaps DEL746-750/T790M/C797S, form open): as above
T2 sequence (P00533 695-1210 T790M/C797S/L858R): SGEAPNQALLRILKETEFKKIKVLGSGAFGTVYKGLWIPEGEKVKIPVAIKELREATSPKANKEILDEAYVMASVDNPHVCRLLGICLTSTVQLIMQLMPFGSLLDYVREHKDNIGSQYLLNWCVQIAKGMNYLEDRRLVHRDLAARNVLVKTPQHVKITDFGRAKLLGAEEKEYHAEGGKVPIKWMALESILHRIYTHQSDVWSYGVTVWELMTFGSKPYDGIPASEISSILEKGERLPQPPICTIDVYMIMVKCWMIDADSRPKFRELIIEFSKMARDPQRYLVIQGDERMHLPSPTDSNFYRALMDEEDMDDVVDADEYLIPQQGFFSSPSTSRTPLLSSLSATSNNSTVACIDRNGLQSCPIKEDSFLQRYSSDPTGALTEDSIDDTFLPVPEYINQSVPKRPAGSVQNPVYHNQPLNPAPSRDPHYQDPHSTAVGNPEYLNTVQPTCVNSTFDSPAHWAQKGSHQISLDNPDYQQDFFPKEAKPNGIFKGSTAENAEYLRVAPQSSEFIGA
T1 sequence (P00533 668-1210): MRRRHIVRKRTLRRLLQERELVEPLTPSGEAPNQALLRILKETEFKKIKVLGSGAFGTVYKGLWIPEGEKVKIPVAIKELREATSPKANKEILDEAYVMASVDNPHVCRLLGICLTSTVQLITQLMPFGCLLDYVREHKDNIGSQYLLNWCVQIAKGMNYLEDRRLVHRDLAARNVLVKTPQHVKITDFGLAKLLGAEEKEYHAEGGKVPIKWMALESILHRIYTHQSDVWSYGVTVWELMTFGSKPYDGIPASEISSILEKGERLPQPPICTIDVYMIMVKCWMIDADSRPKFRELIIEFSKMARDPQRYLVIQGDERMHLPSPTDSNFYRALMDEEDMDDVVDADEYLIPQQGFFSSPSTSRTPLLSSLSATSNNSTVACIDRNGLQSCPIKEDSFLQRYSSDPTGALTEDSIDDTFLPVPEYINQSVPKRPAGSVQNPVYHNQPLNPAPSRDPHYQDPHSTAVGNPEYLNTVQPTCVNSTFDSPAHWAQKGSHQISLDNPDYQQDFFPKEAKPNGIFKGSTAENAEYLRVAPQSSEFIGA

| SMILES | IC50 [1] [nM] | IC50 [2] [nM] | IC50 [3] [nM] | GI50 (BaF3-WT cells) [nM] | GI50 (BaF3-LR_TM_CS cells) [nM] | GI50 (BaF3-Del_TM_CS cells) [nM] |
| --- | --- | --- | --- | --- | --- | --- |
| COc1cc(N2CCC3(CC2)CN(C)C3)c(C)cc1Nc1nc(Nc2cccc3c2N(S(C)(=O)=O)CC3)c2cc[nH]c2n1 [Example 100, N^2-(2-methoxy-5-methyl-4-(2-methyl-2,7-diazaspiro[3.5]nonan-7-yl)phenyl)-N^4-(1-(methylsulfonyl)indolin-7-yl)-7H-pyrrolo[2,3-d]pyrimidine-2,4-diamine] | 49 | 0.92 | 1 | 1590 | 116 | 39.9 |
| COc1cc(N2CCCN(C)CC2)c(C)cc1Nc1nc(Nc2cccc3c2N(S(C)(=O)=O)CC3)c2cc[nH]c2n1 [Example 101, N^2-(2-methoxy-5-methyl-4-(4-methyl-1,4-diazepan-1-yl)phenyl)-N^4-(1-(methylsulfonyl)indolin-7-yl)-7H-pyrrolo[2,3-d]pyrimidine-2,4-diamine] | 170 | 2 | 3.1 | 1410 | 157 | 58.9 |
| COc1cc(N2C[C@H]3CN(C)C[C@H]3C2)c(C)cc1Nc1nc(Nc2cccc3c2N(S(C)(=O)=O)CC3)c2cc[nH]c2n1 [Example 102, N^2-(2-methoxy-5-methyl-4-((3aR,6aS)-5-methylhexahydropyrrolo[3,4-c]pyrrol-2(1H)-yl)phenyl)-N^4-(1-(methylsulfonyl)indolin-7-yl)-7H-pyrrolo[2,3-d]pyrimidine-2,4-diamine] | 66 | 1.1 | 2 | 1710 | 314 | 30.4 |
| COc1cc(N2CCC(N(C)C)CC2)c(C)cc1Nc1nc(Nc2cccc3c2N(S(C)(=O)=O)CC3)c2cc[nH]c2n1 [Example 103, N^2-(4-(4-(dimethylamino)piperidin-1-yl)-2-methoxy-5-methylphenyl)-N^4-(1-(methylsulfonyl)indolin-7-yl)-7H-pyrrolo[2,3-d]pyrimidine-2,4-diamine] | 28 | 0.47 | 0.78 | 1690 | 76.7 | 25.6 |
| COc1cc(C2CCC(N(C)C)CC2)c(C)cc1Nc1nc(Nc2cccc3c2N(S(C)(=O)=O)CC3)c2cc[nH]c2n1 (stereo not drawn) [Example 104, N^2-(4-(4-(dimethylamino)cyclohexyl)-2-methoxy-5-methylphenyl)-N^4-(1-(methylsulfonyl)indolin-7-yl)-7H-pyrrolo[2,3-d]pyrimidine-2,4-diamine] | 332 | 3.4 | 5.3 | 1490 | 195 | 128 |
| COc1cc(N2CCN(C)[C@@H](C)C2)c(C)cc1Nc1nc(Nc2cccc3c2N(S(C)(=O)=O)CC3)c2cc[nH]c2n1 [Example 105, (S)—N^2-(4-(3,4-dimethylpiperazin-1-yl)-2-methoxy-5-methylphenyl)-N^4-(1-(methylsulfonyl)indolin-7-yl)-7H-pyrrolo[2,3-d]pyrimidine-2,4-diamine] | 455 | 5.3 | 10 | 2090 | 240 | 87 |
| COc1cc(N2C[C@@H](C)N(C)[C@@H](C)C2)c(C)cc1Nc1nc(Nc2cccc3c2N(S(C)(=O)=O)CC3)c2cc[nH]c2n1 [Example 106, N^2-(2-methoxy-5-methyl-4-((3S,5R)-3,4,5-trimethylpiperazin-1-yl)phenyl)-N^4-(1-(methylsulfonyl)indolin-7-yl)-7H-pyrrolo[2,3-d]pyrimidine-2,4-diamine] | 575 | 5.3 | 4.9 | 1790 | 93.8 | 57.3 |
| COc1cc(N2CCN(C)[C@H](C)C2)c(C)cc1Nc1nc(Nc2cccc3c2N(S(C)(=O)=O)CC3)c2cc[nH]c2n1 [Example 107, (R)—N2-(4-(3,4-dimethylpiperazin-1-yl)-2-methoxy-5-methylphenyl)-N4-(1-(methylsulfonyl)indolin-7-yl)-7H-pyrrolo[2,3-d]pyrimidine-2,4-diamine] | 417 | 4.8 | 7.1 | 1960 | 105 | 60.8 |
| COc1cc(C2CCN(CCO)CC2)c(C)cc1Nc1nc(Nc2cccc3c2N(S(C)(=O)=O)CC3)c2cc[nH]c2n1 [Example 108, 2-(4-(5-methoxy-2-methyl-4-((4-((1-(methylsulfonyl)indolin-7-yl)amino)-7H-pyrrolo[2,3-d]pyrimidin-2-yl)amino)phenyl)piperidin-1-yl)ethan-1-ol] | 104 | 1.9 | 2.2 | 2140 | 464 | 181 |
| CN1CCN(c2ccc(Nc3nc(Nc4cccc5c4N(S(C)(=O)=O)CC5)c4cc[nH]c4n3)cn2)CC1 [Example 123, N^2-(6-(4-methylpiperazin-1-yl)pyridin-3-yl)-N^4-(1-(methylsulfonyl)indolin-7-yl)-7H-pyrrolo[2,3-d]pyrimidine-2,4-diamine] | 573 | 4.8 | 6.3 | 376 | 169 | 64.3 |
| CN(C)C1CCN(c2ccc(Nc3nc(Nc4cccc5c4N(S(C)(=O)=O)CC5)c4cc[nH]c4n3)c3c2CCO3)CC1 [Example 124, N^2-(4-(4-(dimethylamino)piperidin-1-yl)-2,3-dihydrobenzofuran-7-yl)-N^4-(1-(methylsulfonyl)indolin-7-yl)-7H-pyrrolo[2,3-d]pyrimidine-2,4-diamine] | 107 | 1 | 1 | 460 | 106 | 39.1 |
| CN1CCN(C2CCN(c3ccc(Nc4nc(Nc5cccc6c5N(S(C)(=O)=O)CC6)c5cc[nH]c5n4)c4c3CCO4)CC2)CC1 [Example 125, N^2-(4-(4-(4-methylpiperazin-1-yl)piperidin-1-yl)-2,3-dihydrobenzofuran-7-yl)-N^4-(1-(methylsulfonyl)indolin-7-yl)-7H-pyrrolo[2,3-d]pyrimidine-2,4-diamine] | 106 | 1.2 | 1.6 | 394 | 61.3 | 38.3 |
